Columns and labels:
Format in all cases: cell-based
S. aureus A222 = experiment: Deferred antagonism assay, producer S. salivarius K12; conditions: K12
Method: (§1) 1-2 producer strain colonies were transferred from a stock plate into 900 μL of suspension solution using a fresh cotton swab. Following this, suspensions were vortexed, and a sample was inoculated onto solid culture media using a fresh cotton swab. The inoculation was a streak that runs diametrically across the agar plate in a 1.5 cm wide strip. The plate was then incubated. Following incubation all visible colonies were removed by swabbing them from the agar surface. The plates were then treated with chloroform by dispensing 2 ml of chloroform onto 4 cm×4 cm piece of cloth and sealing the inverted agar plate on top for 30 minutes. The plates were then air dried for 30 minutes following chloroforming. 1-2 indicator strain colonies were then transferred from a stock plate into complementary suspension solution. The suspensions were then vortexed, and a sample was inoculated onto the same agar surface. These samples were streaked in a perpendicular direction to the initial producer streak.
(§2) Each indicator streak was prepared with fresh a suspension containing cells from a corresponding stock plate containing the indicator strain of interest. Indicator strains suspension samples were transferred using a fresh cotton swab. Results were measured by qualitatively reviewing the subsequent (if any) sizes of the zones of inhibition (ZOI) of indicator strain colony growth. A positive result is when there is a distinctive reduction or complete inhibition of indicator colony growth on the culture medium.
(§3) CABCa agar plates containing various concentrations of saccharide were prepared according to the methods described in Method 1. Producer strains were transferred from stock agar plates into 900 μL THB using a fresh cotton swab. A plastic spread plater was cut to approximately 1.2 cm width and then dipped into ethanol and left to air dry to ensure sterility. A 100 μL sample of the producer strain suspension was then dispensed onto the agar surface in a straight line running diametrically across the agar surface in (approximately) 20 μL spots. The spots were spaced approximately 1.5 cm apart from each other. The plastic spreader was then used to evenly distribute the spots across the agar surface in a 1.5 cm wide strip. This step was taken to ensure an even producer streak was inoculated onto the agar surface and provided an approximate measure of the initial inoculum concentration. Separate plastic spreaders were used for samples containing different producer strains. The samples were left to soak into the agar surface until there was no visible liquid remaining on the agar surface (approximately 20 minutes). Following producer streak preparations, the deferred antagonism assay protocol was followed as per Method 2. Results were recorded by measuring the size of the zone of inhibition (ZOI) in mm.
(§4) A dose response assay was carried out according to method 3 above, except a 1.2 cm streak was used. For the individual saccharide testing the pH of the producer streak was adjusted after the growth of producer to change the acidic conditions.
(§5) A deferred antagonism assay was conducted using K12 or M18 raw ingredient suspended in Todd Hewitt broth (THB). This was spread as a 1.2 cm streak containing approximately 1-2×10^6 cfu down the middle of a CABCa control or CABCa galactose supplemented test plate. After 18 hrs growth at 37° C. with 5% CO2, bacterial growth was removed, and the pH of the agar in the initial streak was measured and adjusted to a pH of 6.5-7.5 using 0.5M sodium carbonate pH11 before sterilizing the agar surface using chloroform vapor. Bacterial test strains were suspended in i-THB before being swabbed across the plates perpendicular to the initial streak. Plates were incubated for a further 18 hrs incubation at 37° C. with 5% CO2 before measuring (mm) any zones of inhibition for each test strain, […]

S. pneumoniae D39 = experiment: as above; conditions: Streptococcus pneumoniae, D39, K12, read-out: Size of zone inhibition normalised to control, S. pneumoniae D39
Method: as §1, §2, §3, §4, §5

[1] = tested on: S. saprophyticus ATCC 15305; experiment: as above; conditions: Staphylococcus saprophyticus, ATCC15305, K12, read-out: Size of zone inhibition normalised to control, S. saprophyticus ATCC 15305
Method: as §1, §2, §3, §4, §5

M. catarrhalis TW1 = experiment: Deferred antagonism assay, producer S. salivarius M18
Method: as §1, §2, §3, §4

L. lactis T-21 = experiment: Dose response deferred antagonism assay, producer M18; conditions: 1.5% (w/v) galactose, largest
[2] = tested on: pathogens implicated in the ENT and Skin infections; experiment: Deferred antagonism assay with other S. salivarius producer strains; conditions: 0.5% w/w galactose; compared with K12 and M18
Method: Method: Preparation of solid culture media—CABCa agar plates were prepared with or without either 2.5% w/w raffinose or 0.5% w/w galactose by the addition of 0.5% (w/v) calcium carbonate to solid CAB agar in bottles and then melted by autoclaving at 110° C. for 10 mins. Once cooled, filter sterilised solutions of the saccharides or distilled water were added and mixed and then 20 ml pipetted into petri dishes.
Preparing S. salivarius producer suspension, about 6 colonies of each S. salivarius strain were added into separate tubes containing 1 ml THB and mixed well.
Deferred antagonism assay—100 μl of S. salivarius producer suspensions was dispensed onto CABCa plates supplemented with or without raffinose or galactose as droplets in a vertical line down the middle of the test plate. This suspension was then spread as 1.2 cm streak down the middle of the plate using a cutdown plastic spreader. Plates were incubated for 18 hours at 37° C., 5% CO2 in air.
After incubation, the bacterial growth was then removed from the agar plate using a sterile cotton swab. The pH of the producer streak was then adjusted by placing a 1 cm wide strip of filter paper soaked in 0.5M sodium carbonate pH 11 onto the agar plate to buffer the acid and adjust the pH up to around pH 6.5-7.5.
Plates were surface sterilised with chloroform vapour for 30 minutes, followed by air drying for 30 minutes.
Bacterial indicator suspensions were prepared by adding 3-9 colonies (depending on the size) of each strain into separate tubes containing 3 ml THB. These suspensions were then swabbed across the agar plate perpendicular to the producer streak and then the agar plate was incubated for a further 18 hours at 37° C., 5% CO2 in air.

O=C[C@H](O)[C@@H](O)[C@@H](O)[C@H](O)CO [Galactose, D-galactose]
Inhibitory activity of S. salivarius K12 in presence of saccharides, S. aureus A222 (S. aureus A222; saccharide range 0.83%-3.3% w/v): ✓
zone of inhibition at 0.5 % strength (S. aureus A222; Staphylococcus aureus, A222, Galactose 0.5% w/w, read-out: Size of zone inhibition normalised to control, S. aureus A222): 12 mm
zone of inhibition at 1.25 % strength (S. aureus A222; Staphylococcus aureus, A222, Galactose 1.25% w/w, read-out: Size of zone inhibition normalised to control, S. aureus A222): 8 mm
zone of inhibition at 1.7 % strength (S. aureus A222; Staphylococcus aureus, A222, Galactose 1.7% w/w, read-out: Size of zone inhibition normalised to control, S. aureus A222): 9 mm
zone of inhibition at 2.5 % strength (S. aureus A222; Staphylococcus aureus, A222, Galactose 2.5% w/w, read-out: Size of zone inhibition normalised to control, S. aureus A222): 6 mm
zone of inhibition at 3.3 % strength (S. aureus A222; Staphylococcus aureus, A222, Galactose 3.3% w/w, read-out: Size of zone inhibition normalised to control, S. aureus A222): 0 mm
zone of inhibition at 5 % strength (S. aureus A222; Staphylococcus aureus, A222, Galactose 5% w/w, read-out: Size of zone inhibition normalised to control, S. aureus A222): 0 mm
zone of inhibition at 0.5 % strength (S. pneumoniae D39; Galactose 0.5% w/w): 8 mm
zone of inhibition at 1.25 % strength (S. pneumoniae D39; Galactose 1.25% w/w): 3 mm
zone of inhibition at 1.7 % strength (S. pneumoniae D39; Galactose 1.7% w/w): 2 mm
zone of inhibition at 2.5 % strength (S. pneumoniae D39; Galactose 2.5% w/w): 6 mm
zone of inhibition at 3.3 % strength (S. pneumoniae D39; Galactose 3.3% w/w): 0 mm
zone of inhibition at 5 % strength (S. pneumoniae D39; Galactose 5% w/w): 0 mm
zone of inhibition at 0.5 % strength ([1]; Galactose 0.5% w/w): 0 mm
zone of inhibition at 1.25 % strength ([1]; Galactose 1.25% w/w): 0 mm
zone of inhibition at 1.7 % strength ([1]; Galactose 1.7% w/w): 0 mm
zone of inhibition at 2.5 % strength ([1]; Galactose 2.5% w/w): 0 mm
zone of inhibition at 3.3 % strength ([1]; Galactose 3.3% w/w): 0 mm
zone of inhibition at 5 % strength ([1]; Galactose 5% w/w): 0 mm
increase in zone of inhibition M. catarrhalis TW1 (M. catarrhalis TW1; 1.0% (w/v) galactose): 12 mm
increase in zone of inhibition M. catarrhalis TW1 (M. catarrhalis TW1; 1.5% (w/v) galactose): 23 mm
L. lactis zone of inhibition (L. lactis T-21): 9 mm
induction of inhibitory effect in other S. salivarius strains [2]: does not induce the same inhibitory effect

Source: patent publication US20240390434A1, “PROBIOTIC ENHANCERS AND USES THEREOF” (Blis Technologies Limited, priority 2021, published 2024)
